This passage reports T/C results from PubChem BioAssay AID248 (DTP/NCI, 2004).

This assay relates to L1210 leukemia ip in BDF1 mice, survival T/C. In words: NCI In Vivo Anticancer Drug Screen. Data for tumor model L1210 Leukemia (intraperitoneal) in B6D2F1 (BDF1) mice. Particulars: endpoint: mean survival time, higher = longer survival. In short, it runs like this:
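Each compound was tested against a transplantable tumor grown in mice. The endpoint was survival, with treated animals benchmarked against vehicle controls as a simple ratio.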

Where [1] appears, read: dose: 50.0 mg/kg/injection, schedule: Q04DX003 (ip), vehicle: saline.
The mark [2] stands for this setting: dose: 100.0 mg/kg/injection, schedule: Q04DX003 (ip), vehicle: saline.
Setting [3] is: dose: 200.0 mg/kg/injection, schedule: Q04DX003 (ip), vehicle: saline.
Setting [4] is: dose: 50.0 mg/kg/injection, schedule: Q01DX001 (ip), vehicle: saline.
The mark [5] stands for this setting: dose: 100.0 mg/kg/injection, schedule: Q01DX001 (ip), vehicle: saline.
[6] abbreviates: dose: 200.0 mg/kg/injection, schedule: Q01DX001 (ip), vehicle: saline.
Setting [7] is: dose: 400.0 mg/kg/injection, schedule: Q01DX001 (ip), vehicle: saline.
Setting [8] is: dose: 100.0 mg/kg/injection, schedule: Q04DX003 (ip), vehicle: saline with Tween-80.
[9] abbreviates: dose: 200.0 mg/kg/injection, schedule: Q04DX003 (ip), vehicle: saline with Tween-80.

Several values for one entry are separate records, joined by “and”; a condition that tells them apart may be missing. Identical values can stand only once. Toxic doses and inconclusive results are not listed.

With `CC(=O)NCC1(c2ccccc2)CCN(CCCC(=O)c2ccc(F)cc2)CC1`, the T/C (dose: 1.56 mg/kg/injection, schedule: Q03HX024 (ip), vehicle: saline) was 94 % of control; the T/C (dose: 3.12 mg/kg/injection, schedule: Q03HX024 (ip), vehicle: saline) is 98 % of control; the T/C (dose: 4.1 mg/kg/injection, schedule: Q01DX009 (ip), vehicle: saline) was 96 % of control; the T/C (dose: 6.25 mg/kg/injection, schedule: Q01DX009 (ip), vehicle: saline) was 98 % of control; the T/C (dose: 8.2 mg/kg/injection, schedule: Q01DX009 (ip), vehicle: saline) was 96 % of control; the T/C (dose: 12.5 mg/kg/injection, schedule: Q01DX009 (ip), vehicle: saline) was 102 % of control. The T/C is 100 % of control (dose: 12.5 mg/kg/injection, schedule: Q04DX003 (ip), vehicle: saline); 89 % of control (dose: 16.5 mg/kg/injection, schedule: Q01DX009 (ip), vehicle: saline); 100 % of control (dose: 18.75 mg/kg/injection, schedule: Q01DX001 (ip), vehicle: saline); 96 % of control (dose: 25.0 mg/kg/injection, schedule: Q01DX009 (ip), vehicle: saline); 86 % of control (dose: 25.0 mg/kg/injection, schedule: Q03HX024 (ip), vehicle: saline); 100 % of control and 101 % of control (2×) (dose: 25.0 mg/kg/injection, schedule: Q04DX003 (ip), vehicle: saline). The T/C is 86 % of control (dose: 33.0 mg/kg/injection, schedule: Q01DX009 (ip), vehicle: saline); 96 % of control (dose: 37.5 mg/kg/injection, schedule: Q01DX001 (ip), vehicle: saline); 109 % of control (dose: 50.0 mg/kg/injection, schedule: Q01DX009 (ip), vehicle: saline); 101 % of control and 108 % of control and 118 % of control under setting [1]; 91 % of control (dose: 66.0 mg/kg/injection, schedule: Q01DX009 (ip), vehicle: saline); 96 % of control (dose: 75.0 mg/kg/injection, schedule: Q01DX001 (ip), vehicle: saline). Also, the T/C (dose: 100.0 mg/kg/injection, schedule: Q01DX009 (ip), vehicle: saline) was 107 % of control; the T/C under setting [2] was 103 % of control; the T/C (dose: 150.0 mg/kg/injection, schedule: Q01DX001 (ip), vehicle: saline) is 91 % of control; the T/C under setting [3] is 113 % of control.
Regarding `CC1=C(Cl)C(=O)C(C)=C(Cl)C1=O`, the T/C runs as follows: (dose: 10.0 mg/kg/injection, schedule: Q01DX001 (ip), vehicle: saline) 90 % of control; (dose: 20.0 mg/kg/injection, schedule: Q01DX001 (ip), vehicle: saline) 92 % of control; (dose: 40.0 mg/kg/injection, schedule: Q01DX001 (ip), vehicle: saline) 108 % of control.
As to `Cc1ccc(NC(=O)NCC(=O)O)cc1`, the T/C runs as follows: (dose: 100.0 mg/kg/injection, schedule: Q01DX001 (ip), vehicle: carboxymethylcellulose (CMC)) 101 % of control; (dose: 200.0 mg/kg/injection, schedule: Q01DX001 (ip), vehicle: carboxymethylcellulose (CMC)) 97 % of control; (dose: 400.0 mg/kg/injection, schedule: Q01DX001 (ip), vehicle: carboxymethylcellulose (CMC)) 109 % of control.
Take `COc1c2c(c(OC(C)=O)c3c1C(=O)c1ccccc1C3=O)CCCC2`: the T/C (dose: 6.25 mg/kg/injection, schedule: Q01DX001 (ip), vehicle: saline) was 100 % of control; the T/C (dose: 12.5 mg/kg/injection, schedule: Q01DX001 (ip), vehicle: saline) is 96 % of control; the T/C (dose: 25.0 mg/kg/injection, schedule: Q01DX001 (ip), vehicle: saline) is 101 % of control; the T/C under setting [4] is 95 % of control; the T/C under setting [5] is 93 % of control.
On to `CC(=O)[O][Pb]([CH2]CC(C)C)([CH2]CC(C)C)[CH2]CC(C)C`, for which the T/C reads like this: (dose: 0.78 mg/kg/injection, schedule: Q01DX009 (ip), vehicle: saline with Tween-80) 98 % of control; (dose: 0.78 mg/kg/injection, schedule: Q04DX002 (ip), vehicle: saline with Tween-80) 95 % of control; (dose: 1.56 mg/kg/injection, schedule: Q01DX009 (ip), vehicle: saline with Tween-80) 97 % of control; (dose: 1.56 mg/kg/injection, schedule: Q04DX002 (ip), vehicle: saline with Tween-80) 92 % of control; (dose: 3.12 mg/kg/injection, schedule: Q01DX009 (ip), vehicle: saline with Tween-80) 95 % of control; (dose: 3.12 mg/kg/injection, schedule: Q04DX002 (ip), vehicle: saline with Tween-80) 92 % of control.
Turning to `Cc1[nH]c2ccccc2c1C(=O)Cc1ccc(Cl)cc1Cl`, the T/C by setting is: under setting [4], 98 % of control; under setting [5], 101 % of control; under setting [6], 101 % of control; under setting [7], 95 % of control.
On to `OC1(c2ccccc2)C2=CC(c3ccccc3)=C(c3ccccc3)CC2C(c2ccccc2)C1c1ccccc1` (stereo not drawn), for which the T/C is, setting by setting: (dose: 100.0 mg/kg/injection, schedule: Q01DX001 (ip), vehicle: saline with Tween-80) 100 % of control; (dose: 200.0 mg/kg/injection, schedule: Q01DX001 (ip), vehicle: saline with Tween-80) 91 % of control; (dose: 400.0 mg/kg/injection, schedule: Q01DX001 (ip), vehicle: saline with Tween-80) 96 % of control.
Regarding `CC(C)=CCC/C(C)=C/CC(N)Cc1ccccc1` (stereo not drawn), the T/C was 94 % of control (dose: 12.5 mg/kg/injection, schedule: Q01DX009 (ip), vehicle: Klucel (hydroxypropylcellulose) (HPC)); 97 % of control (dose: 25.0 mg/kg/injection, schedule: Q01DX009 (ip), vehicle: Klucel (hydroxypropylcellulose) (HPC)); 92 % of control (dose: 50.0 mg/kg/injection, schedule: Q01DX009 (ip), vehicle: Klucel (hydroxypropylcellulose) (HPC)).
For `CCOC(=O)N1C=Cc2c(c3ccccc3n2C)N1C(=O)OCC`, the T/C by setting is: under setting [5], 93 % of control; under setting [6], 104 % of control; under setting [7], 100 % of control.
Take `CNC1(C(N)=O)CCN(Cc2ccccc2)CC1`: the T/C reads like this: (dose: 50.0 mg/kg/injection, schedule: Q01DX009 (ip), vehicle: saline with Tween-80) 99 % of control; (dose: 100.0 mg/kg/injection, schedule: Q01DX009 (ip), vehicle: saline with Tween-80) 94 % of control; under setting [8], 95 % of control; (dose: 200.0 mg/kg/injection, schedule: Q01DX009 (ip), vehicle: saline with Tween-80) 90 % of control; under setting [9], 101 % of control.
For `O=NN(CCCl)C(=O)Nc1ccccc1C(=O)O`, the T/C is, setting by setting: (dose: 6.0 mg/kg/injection, schedule: Q01DX001 (ip), vehicle: carboxymethylcellulose (CMC)) 121 % of control; (dose: 9.0 mg/kg/injection, schedule: Q01DX001 (ip), vehicle: carboxymethylcellulose (CMC)) 156 % of control.
Turning to `O=C(/C=C/c1ccncc1)c1cccc2ccccc12`, the T/C runs as follows: under setting [8], 89 % of control; under setting [9], 97 % of control.
With `Fc1ccc(-n2ncc3c2-c2ccccc2CCC3)cc1`, the T/C was 108 % of control under setting [5], 104 % of control under setting [6] and 108 % of control under setting [7].
Take `COc1ccc(C(=O)/C=C/c2ccccc2O)cc1`: the T/C was 104 % of control (dose: 75.0 mg/kg/injection, schedule: Q04DX003 (ip), vehicle: saline); 101 % of control (dose: 150.0 mg/kg/injection, schedule: Q04DX003 (ip), vehicle: saline); 96 % of control (dose: 300.0 mg/kg/injection, schedule: Q04DX003 (ip), vehicle: saline).
As to `[CH3][Sb]1([Cl])[CH2]CCC[CH2]1`, the T/C is 97 % of control under setting [1], 104 % of control under setting [2] and 104 % of control under setting [3].
Consider `OCCN=C1c2cc(Cl)ccc2-c2c(Cl)cc(Cl)cc21`, for which the T/C (dose: 100.0 mg/kg/injection, schedule: Q04DX003 (ip), vehicle: Klucel (hydroxypropylcellulose) (HPC)) was 103 % of control; the T/C (dose: 200.0 mg/kg/injection, schedule: Q04DX003 (ip), vehicle: Klucel (hydroxypropylcellulose) (HPC)) is 97 % of control; the T/C (dose: 400.0 mg/kg/injection, schedule: Q04DX003 (ip), vehicle: Klucel (hydroxypropylcellulose) (HPC)) was 87 % of control.
For the compound `CC(C)c1ccc(/C=N/N=C(N)N)cc1`, the T/C runs as follows: (dose: 3.8 mg/kg/injection, schedule: Q01DX Z (ip), vehicle: other) 100 % of control; (dose: 7.5 mg/kg/injection, schedule: Q01DX Z (ip), vehicle: other) 102 % of control; (dose: 15.0 mg/kg/injection, schedule: Q01DX Z (ip), vehicle: other) 94 % of control.
For `C/C(=N/OC(=O)N(C)C)c1cc(Cl)ccc1Cl`, the T/C by setting is: under setting [5], 100 % of control; under setting [6], 100 % of control.
